Patent US8883745B2, “C—glycolipids with enhanced Th-1 profile” (New York University, priority 2006, dated 2014)

How the values were obtained:
IL-12 = IL-12 levels in sera upon i.v. glycolipid administration to C57BL/6 mice (ELISA); assay type: in vivo; parameters: IL-12 levels, test 1 / IL-12 levels, test 2 / IL-12 levels, average / IL-12 levels, Total: unit not given here; conditions: for IL-12/IL-4 (B6): C57BL/6, ratio calculated from Tables 1-6; for IL-12 levels, average / IL-12 levels, test 1 / IL-12 levels, test 2 / IL-12 levels, Total: C57BL/6, serum; for IL-12 levels, Total: total over hours 0-72
Protocol: (§1) Five- to six-week-old female C57BL/6 mice and BALB/c mice were purchased from Taconic. Each glycolipid was stored at 1 mg/ml in 100% DMSO. Mice were injected intravenously with 1 μg of each glyocolipid diluted in 200 μL sterile phosphate buffered saline (PBS). At indicated time points, sera were collected from each animal, and concentrations of IFN-γ, IL-4, and IL-12 in the sera were evaluated by enzyme-linked immunosorbent assay (ELISA). Serum concentrations of IFN-γ, IL-4, and IL-12 were evaluated using an ELISA kit (eBioscience, San Diego, Calif.). Briefly, 96 well flat-bottom ELISA plates (NUNC) were coated with capture antibody according to the manufacture's recommendation and incubated overnight at 4° C. The plates were washed with PBS+0.05% Tween 20 (PBS-T), then incubated with manufacturer provided blocking solution for 1 hr at room temperature to block non-specific binding sites. After washing with PBS-T, sera diluted 1:10 was added to the wells and incubated for 2 hrs at room temperature. Plates were then incubated at room temperature for 1 hr with biotintylated detection antibody, washed, incubated with avidin conjugated to horse radish peroxidase (HRP) for 30 min at room temperature, washed, and finally incubated with tetramethylbenzidine substrate solution in the dark for 10 minutes at room temperature. The antibodies, avidin-HRP, and substrate solution were all diluted according to the manufacture's recommendation. Reactions were stopped with 2.0N sulfuric acid and the cytokine concentration in each well was determined by comparing the absorbance at 450 nm in each well to known standards. The levels of Th1- and Th2-type cytokines were determined in two different genetic backgrounds, i.e., in C57BL/6 mice and BALB/c mice. The following compounds were administered: A=compound (A-1 trans-conformer), B=compound (A-2), C=compound (A-3), D=compound (A-4), E=compound (A-5), Z=control (PBS alone), CRONY=α-C-GalCer, KRN=α-GalCer, GCK109 (A-1 trans-conformer), GCK151 (A-1 cis-conformer), GCK152 (A-7). The levels of cytokines were measured at 0, 2, 6, 12, 24, 48, and 72 hours after the compound administration. The levels of Th1-type cytokines IFN-γ and IL-12 are summarized in FIGS. 2A-C and 3A-C, respectively. Table 7 provides IFN-γ/IL-4 and IL-12/IL-4 ratios for various compounds, which can be used as indicators of their ability to selectively stimulate Th1-type immune responses.

IL-4 = IL-4 levels in sera upon i.v. glycolipid administration to C57BL/6 mice (ELISA); assay type: in vivo; parameters: unit not given here; conditions: for IL-4 level, Total: total over hours 0-72
Protocol: as §1

[1] = Solubility in an aqueous solution; assay type: physicochemical
[2] = system: rodent malaria parasites, P. yoeli and P. berghei; conditions: administration to mice; cited from earlier work
[3] = rodents and monkeys, independently of dosage; cited from earlier work
solid tumors = conditions: Phase I study; cited from earlier work

CCCCCCCCCCCCCCCCCCCCCCCCCCCCC(=O)N[C@@H](/C=C/[C@H]1O[C@H](CO)[C@H](O)[C@H](O)[C@H]1O)[C@H](O)[C@H](O)CCCCCCCCCCCCCC [A-2, (3S,4S,5R)-1-C-(α-D-galactopyranosyl)-3-(N-nonacosanoylamino)-4,5-nonadec-(1,2-E)-enediol]
IL-12/IL-4 (B6) (IL-12): 4.8
IL-12 levels, average (IL-12; hour 0): 5
IL-12 levels, test 1 (IL-12; hour 0): 5
IL-12 levels, test 2 (IL-12; hour 0): 5
IL-12 levels, average (IL-12; hour 2): 161.5
IL-12 levels, test 1 (IL-12; hour 2): 178
IL-12 levels, test 2 (IL-12; hour 2): 145
IL-12 levels, average (IL-12; hour 6): 1363.5
IL-12 levels, test 1 (IL-12; hour 6): 1488
IL-12 levels, test 2 (IL-12; hour 6): 1239
IL-12 levels, average (IL-12; hour 12): 1818.5
IL-12 levels, test 1 (IL-12; hour 12): 1692
IL-12 levels, test 2 (IL-12; hour 12): 1945
IL-12 levels, average (IL-12; hour 24): 323
IL-12 levels, test 1 (IL-12; hour 24): 44
IL-12 levels, test 2 (IL-12; hour 24): 602
IL-12 levels, average (IL-12; hour 48): 250
IL-12 levels, test 1 (IL-12; hour 48): 500
IL-12 levels, test 2 (IL-12; hour 48): 0
IL-12 levels, average (IL-12; hour 72): 45.5
IL-12 levels, test 1 (IL-12; hour 72): 91
IL-12 levels, test 2 (IL-12; hour 72): 0
IL-12 levels, Total (IL-12): 3969
IL-4 level, average (IL-4; hour 0): 46
IL-4 level, test 1 (IL-4; hour 0): 46
IL-4 level, test 2 (IL-4; hour 0): 46
IL-4 level, average (IL-4; hour 2): 443
IL-4 level, test 1 (IL-4; hour 2): 286
IL-4 level, test 2 (IL-4; hour 2): 600
IL-4 level, average (IL-4; hour 6): 110
IL-4 level, test 1 (IL-4; hour 6): 95
IL-4 level, test 2 (IL-4; hour 6): 125
IL-4 level, average (IL-4; hour 12): 56.5
IL-4 level, test 1 (IL-4; hour 12): 45
IL-4 level, test 2 (IL-4; hour 12): 68
IL-4 level, average (IL-4; hour 24): 52
IL-4 level, test 1 (IL-4; hour 24): 46
IL-4 level, test 2 (IL-4; hour 24): 58
IL-4 level, average (IL-4; hour 48): 56
IL-4 level, test 1 (IL-4; hour 48): 60
IL-4 level, test 2 (IL-4; hour 48): 52
IL-4 level, average (IL-4; hour 72): 61.5
IL-4 level, test 1 (IL-4; hour 72): 59
IL-4 level, test 2 (IL-4; hour 72): 64
IL-4 level, Total (IL-4): 826

CCCCCCCCCCCCCCCCCCCCCCCCCC(=O)N[C@@H](CO[C@H]1O[C@H](CO)[C@H](O)[C@H](O)[C@H]1O)[C@H](O)[C@H](O)CCCCCCCCCCCCCC [KRN, (2S,3S,4R)-1-O-(α-D-galactopyranosyl)-2-(N-hexacosanoylamino)-1,3,4-,-octadecanetriol, reference compound]
IL-12/IL-4 (B6) (IL-12): 0.3
IL-12 levels, average (IL-12; hour 0): 5
IL-12 levels, test 1 (IL-12; hour 0): 5
IL-12 levels, test 2 (IL-12; hour 0): 5
IL-12 levels, average (IL-12; hour 2): 0
IL-12 levels, test 1 (IL-12; hour 2): 0
IL-12 levels, test 2 (IL-12; hour 2): 0
IL-12 levels, average (IL-12; hour 6): 1044.5
IL-12 levels, test 1 (IL-12; hour 6): 1116
IL-12 levels, test 2 (IL-12; hour 6): 973
IL-12 levels, average (IL-12; hour 12): 195
IL-12 levels, test 1 (IL-12; hour 12): 174
IL-12 levels, test 2 (IL-12; hour 12): 216
IL-12 levels, average (IL-12; hour 24): 0
IL-12 levels, test 1 (IL-12; hour 24): 0
IL-12 levels, test 2 (IL-12; hour 24): 0
IL-12 levels, average (IL-12; hour 48): 61.5
IL-12 levels, test 1 (IL-12; hour 48): 0
IL-12 levels, test 2 (IL-12; hour 48): 123
IL-12 levels, average (IL-12; hour 72): 132.5
IL-12 levels, test 1 (IL-12; hour 72): 101
IL-12 levels, test 2 (IL-12; hour 72): 164
IL-12 levels, Total (IL-12): 1440
IL-4 level, average (IL-4; hour 0): 46
IL-4 level, test 1 (IL-4; hour 0): 46
IL-4 level, test 2 (IL-4; hour 0): 46
IL-4 level, average (IL-4; hour 2): 3915
IL-4 level, test 1 (IL-4; hour 2): 3584
IL-4 level, test 2 (IL-4; hour 2): 4246
IL-4 level, average (IL-4; hour 6): 183
IL-4 level, test 1 (IL-4; hour 6): 122
IL-4 level, test 2 (IL-4; hour 6): 244
IL-4 level, average (IL-4; hour 12): 102.5
IL-4 level, test 1 (IL-4; hour 12): 103
IL-4 level, test 2 (IL-4; hour 12): 102
IL-4 level, average (IL-4; hour 24): 18
IL-4 level, test 1 (IL-4; hour 24): 20
IL-4 level, test 2 (IL-4; hour 24): 16
IL-4 level, average (IL-4; hour 48): 1
IL-4 level, test 1 (IL-4; hour 48): 2
IL-4 level, test 2 (IL-4; hour 48): 0
IL-4 level, average (IL-4; hour 72): 0.5
IL-4 level, test 1 (IL-4; hour 72): 0
IL-4 level, test 2 (IL-4; hour 72): 1
IL-4 level, Total (IL-4): 4267
solubility in an aqueous solution relative to the tested compounds of the invention [1]: more soluble
anti-malaria activity (inhibition of intra-hepatocytic stages) [2]: strong anti-malaria activity
toxicity [3]: does not induce toxicity
effect in patients with solid tumors (solid tumors): little effect
